Converted amounts (≈) assume the structure as drawn. Like-named read-outs stand apart in the source and are kept apart here.
Tests used:
FHV-1 [1] = assay: Cytopathic effect (CPE) inhibition assay; conditions: for Anti-FHV-1: in vitro anti-FHV-1 effect in CRFK cells, √ / × (key not given); for EC50: Felid alphaherpesvirus 1, CRFK, 48 h
CRFK cells = conditions: 48 h, CCK-8
FHV-1 gB = FHV-1 gB (Feline herpesvirus 1, UniProt Q86665); assay: biochemical; type: binding, feline herpesvirus-1 (FHV-1); conditions: for koff: read-out: Kdis (rate of dissociation); for kon: read-out: Kon (rate of association); for Binding and dissociation kinetics in words: BLI, gB
in vitro = conditions: cat
FHV-1 [2] = tested on: FHV-1; parameters: method as in earlier work; conditions: reported for CRFK cells; cited from earlier work
FHV-1 [3] = assay: Time of drug addition assay with qPCR of viral nucleic acid copies; type: cell-based, feline herpesvirus-1 (FHV-1); conditions: for Inhibition of FHV-1 entry into host cells (virus entry assay): 4 °C pre-incubation then 37 °C, Saikosaponin B2 50 μg/mL; for FHV-1 nucleic acid copy numbers after drug pretreatment of cells: CRFK cells pretreated before infection, qPCR
gB = type: binding, feline herpesvirus-1 (FHV-1)
FHV-1 [4] = assay: Fusion and entry assays with DIOC- and R18-labelled virus (confocal microscopy); type: cell-based, feline herpesvirus-1 (FHV-1); conditions: 10 MOI, CRFK cells; for Adsorption of DIOC-labelled FHV-1: 4 °C 2 h
FHV-1 [5] = assay: Plaque reduction assay; type: cell-based, feline herpesvirus-1 (FHV-1); conditions: CRFK cells

Row | Molecule | Anti-FHV-1 (FHV-1 [1]) | Kd (FHV-1 gB) [µM] | koff (FHV-1 gB) [s⁻¹] | kon (FHV-1 gB) [M⁻¹ s⁻¹] | CC50 at 48 h (in vitro) [µg/mL] | also measured
1 | Ivermectin | × | – | – | – | – | CC50 (CRFK cells): 1.81 ± 0.06 µg/mL
2 | O=C(C=Cc1ccc(O)c(O)c1)OC1CC(O)(C(=O)O)CC(O)C1OC(=O)C=Cc1ccc(O)c(O)c1 (centres unmarked) [4,5-Dicaffeoylquinic acid] | × | 7.96 | 0.0652 | 8180 | – | CC50 at 48 h (in vitro; CRFK cells): 54.5 ± 2.89 µg/mL (≈ 106 µM)
3 | COc1ccc(-c2cc(=O)c3c(O)cc(O[C@@H]4O[C@H](CO[C@@H]5O[C@@H](C)[C@H](O)[C@@H](O)[C@H]5O)[C@@H](O)[C@H](O)[C@H]4O)cc3o2)cc1O [Diosmin] | × | 90.8 | 0.034 | 374 | 449.75 ± 0.21 (≈ 739 µM) | –
4 | Nc1nc2c(ncn2COCCO)c(=O)[nH]1 [Acyclovir] | – | – | – | – | – | EC50 (FHV-1 [2]): 13.04 µg/mL (≈ 57.9 µM)
5 | O=C(/C=C/c1ccc(O)c(O)c1)O[C@@H]1C[C@@](OC(=O)/C=C/c2ccc(O)c(O)c2)(C(=O)O)C[C@@H](O)[C@@H]1O [Cynarine] | × | 8.41 | 0.00596 | 709 | – | CC50 at 48 h (in vitro; CRFK cells): 60.1 ± 1.86 µg/mL (≈ 116 µM)
6 | C=CCS[S+]([O-])CC=C (centres unmarked) [Allicin] | × | 3530 | 0.00299 | 0.846 | 84.9 ± 0.87 (≈ 523 µM) | –
7 | C[C@@H]1O[C@@H](O[C@@H]2[C@@H](O)[C@H](OCCc3ccc(O)c(O)c3)O[C@H](CO)[C@H]2OC(=O)/C=C/c2ccc(O)c(O)c2)[C@H](O)[C@H](O)[C@H]1O [Verbascoside] | × | 39.9 | 0.00729 | 183 | 79.6 ± 0.99 (≈ 127 µM) | –
8 | O=C(O)c1cc(O)c2c(c1)[C@H]([C@H]1c3cc(C(=O)O)cc(O)c3C(=O)c3c(O[C@@H]4O[C@H](CO)[C@@H](O)[C@H](O)[C@H]4O)cccc31)c1cccc(O[C@@H]3O[C@H](CO)[C@@H](O)[C@H](O)[C@H]3O)c1C2=O [Sennoside A] | × | < 1e-06 | < 1e-07 | 1440 | 131 ± 8.86 (≈ 152 µM) | –
9 | O=c1c(O[C@@H]2O[C@H](CO)[C@@H](O)[C@H](O)[C@H]2O)c(-c2ccc(O)c(O)c2)oc2cc(O)cc(O)c12 [Isoquercetin] | × | 73.3 | 0.0179 | 245 | 289 ± 5.69 (≈ 623 µM) | –
10 | O=c1c(O[C@@H]2O[C@H](CO)[C@H](O)[C@H](O)[C@H]2O)c(-c2ccc(O)c(O)c2)oc2cc(O)cc(O)c12 [Hyperoside] | × | 23.9 | 0.00683 | 286 | > 50 | –
11 | O=C1O[C@H]2[C@@H]3OC(=O)c4cc(O)c(O)c(O)c4-c4c(O)c(O)c5oc(=O)c6c(c(O)c(O)c7oc(=O)c4c5c76)-c4c(cc(O)c(O)c4O)C(=O)OC[C@H]3OC(O)[C@@H]2OC(=O)c2cc(O)c(O)c(O)c2-c2c1cc(O)c(O)c2O (mixture of isomers) [Punicalagin] | √ | < 1e-06 | < 1e-07 | 8740 | 3.32 ± 0.28 | Inhibition of FHV-1 entry into host cells (virus entry assay) (FHV-1 [3]): reduced effectiveness in inhibiting virus infection; FHV-1 nucleic acid copy numbers after drug pretreatment of cells (FHV-1 [3]): negligible changes; Binding and dissociation kinetics in words (FHV-1 gB): rapid binding with no dissociation; Thermal stability (Tm) of gB (gB): altered the thermal stability of gB; EC50 (FHV-1 [1]): 2.19 µg/mL; Adsorption of DIOC-labelled FHV-1 (FHV-1 [4]): inhibit the adsorption of FHV-1; Inhibition of FHV-1-induced cytopathic effects and plaque formation (FHV-1 [5]): effective inhibitors
12 | CC1OC(OC2CCC3(C)C(CCC4(C)C3C=CC3=C5CC(C)(C)CCC5(CO)C(O)CC34C)C2(C)CO)C(O)C(OC2OC(CO)C(O)C(O)C2O)C1O (centres unmarked) [Saikosaponin B2] | √ | – | – | – | – | Inhibition of FHV-1 entry into host cells (virus entry assay) (FHV-1 [3]): exhibited inhibitory effects; FHV-1 nucleic acid copy numbers after drug pretreatment of cells (FHV-1 [3]): negligible changes; Viral nucleic acid expression with drug treatment after infection (FHV-1 [3]; drug applied to CRFK cells infected with FHV-1, qPCR): remarkably significant difference; Binding and dissociation kinetics in words (FHV-1 gB): rapid binding and dissociation; Thermal stability (Tm) of gB (gB): altered the thermal stability of gB; EC50 (FHV-1 [1]): 13.5 µg/mL (≈ 17.3 µM); Adsorption of DIOC-labelled FHV-1 (FHV-1 [4]): inhibit the adsorption of FHV-1; Entry of R18-labelled FHV-1 (FHV-1 [4]; 4 °C 2 h then 37 °C 2 h): inhibited the entry of FHV-1; Inhibition of FHV-1-induced cytopathic effects and plaque formation (FHV-1 [5]): effective inhibitors; CC50 at 48 h (in vitro; CRFK cells): 197.5 ± 0.52 µg/mL (≈ 253 µM)
13 | O=c1[nH]c(=O)n([C@H]2C[C@H](O)[C@@H](CO)O2)cc1I [Idoxuridine] | – | – | – | – | – | EC50 (FHV-1 [2]): 1.52 µg/mL (≈ 4.29 µM)
14 | O=C1c2c(O)cc(O)cc2O[C@H](c2cc(O)c(O)c(O)c2)[C@H]1O [Dihydromyricetin] | × | 36.1 | 0.00506 | 140 | 3.22 ± 0.43 (≈ 10.1 µM) | –
15 | O=C(O)P(=O)(O)O [Foscarnet] | – | – | – | – | – | EC50 (FHV-1 [2]): 44.71 µg/mL (≈ 355 µM)
16 | Nc1ccn(C[C@@H](CO)OCP(=O)(O)O)c(=O)n1 [Cidofovir] | – | – | – | – | – | EC50 (FHV-1 [2]): 3.07 µg/mL (≈ 11 µM)
17 | O=C(O)[C@H]1O[C@@H](Oc2cc3oc(-c4ccccc4)cc(=O)c3c(O)c2O)[C@H](O)[C@@H](O)[C@@H]1O [Baicalin] | × | 41.6 | 0.922 | 1090 | 65.8 ± 2.12 (≈ 147 µM) | –
18 | Nc1nc2c(ncn2CCC(CO)CO)c(=O)[nH]1 [Penciclovir] | – | – | – | – | – | EC50 (FHV-1 [2]): 3.50 µg/mL (≈ 13.8 µM)
19 | Nc1nc(O)c2ncn(COC(CO)CO)c2n1 [Ganciclovir] | – | – | – | – | – | EC50 (FHV-1 [2]): 1.33 µg/mL (≈ 5.21 µM)
20 | O=C1OC[C@H]2OC(O)[C@H](O)[C@@H](O)[C@@H]2OC(=O)c2cc(O)c(O)c(O)c2-c2c(O)c(O)c3oc(=O)c4c(c(O)c(O)c5oc(=O)c2c3c54)-c2c1cc(O)c(O)c2O (mixture of isomers) [Punicalin] | √ | < 1e-06 | < 1e-07 | 12500 | – | Inhibition of FHV-1 entry into host cells (virus entry assay) (FHV-1 [3]): reduced effectiveness in inhibiting virus infection; FHV-1 nucleic acid copy numbers after drug pretreatment of cells (FHV-1 [3]): negligible changes; Binding and dissociation kinetics in words (FHV-1 gB): rapid binding with no dissociation; Thermal stability (Tm) of gB (gB): altered the thermal stability of gB; EC50 (FHV-1 [1]): 0.22 µg/mL; Adsorption of DIOC-labelled FHV-1 (FHV-1 [4]): inhibit the adsorption of FHV-1; Inhibition of FHV-1-induced cytopathic effects and plaque formation (FHV-1 [5]): effective inhibitors; CC50 at 48 h (in vitro; CRFK cells): 7.65 ± 0.68 µg/mL
21 | O=C(O)[C@H]1O[C@@H](Oc2cc3oc(-c4ccc(O)cc4)cc(=O)c3c(O)c2O)[C@H](O)[C@@H](O)[C@@H]1O [Scutellarin] | × | 0.647 | 0.00875 | 13500 | 185 ± 3.37 (≈ 401 µM) | –

— article PMC10892935 (Viruses, 2024)
